compound: COC1=C(C=C(C=C1)C2=CC3=NC=CN3C(=N2)NC4=C(C=CC=N4)C(=O)N)OC [BAY61-3606] + CCNC(=O)c1noc(-c2cc(C(C)C)c(O)cc2O)c1-c1ccc(CN2CCOCC2)cc1 [Luminespib] (partner 0.01 µM); test: relative viability (nuclei count vs DMSO), 5 days (fraction); higher = more cells survive; conditions: first compound 0.02 µM
In short: (§1)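 A single step with final 0.05% Triton X-100, 1% formaldehyde and 1 ug/ml Hoechst fixed the cells and stained nuclei 5 days after treatment. Lung cancer cell lines in 1536-well plates had been treated by pin tool the day after seeding with one drug alone or a fixed anchor-drug dose plus five library-drug doses (not always all listed) in √10 steps, and nuclei were counted on 4× images. Relative viability is the ratio of nuclei in treated wells to nuclei in vehicle wells, taken as the median of duplicate plates.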

Cell Line | relative viability
NCI-H2342 | 0.895
NCI-H1623 | 0.604
RERF-LC-KJ | 1.22
NCI-H1651 | 1.03
NCI-H1734 | 0.26
NCI-H2009 | 1.08
NCI-H596 | 0.941
SK-LU-1 | 0.182
SW 1573 | 0.192
LCLC-97TM1 | 0.793
NCI-H661 | 0.902
NCI-H2228 | 0.13
EMC-BAC-2 | 1.21
NCI-H2087 | 0.188
HCC-44 | 1.1
NCI-H727 | 0.334

Cell Line | relative viability
LK-2 | 0.168
NCI-H2126 | 0.964
NCI-H1793 | 0.177
H3255 | 0.966
COR-L23 | 0.672
COR-L 105 | 0.827
LC-2-ad | 1.2
LU99A | 0.347
ChaGo-K-1 | 0.611
NCI-H358 | 0.428
NCI-H322M | 0.879
NCI-H522 | 1.05
LXF-289 | 0.772
NCI-H1563 | 0.528
NCI-H1792 | 0.462

same assay, conditions: first compound 0.06325 µM

Cell Line | relative viability
NCI-H2342 | 0.719
NCI-H1623 | 0.439
RERF-LC-KJ | 1.45
NCI-H1651 | 0.869
NCI-H1734 | 0.179
NCI-H2009 | 1.04
NCI-H596 | 1.14
SK-LU-1 | 0.224
SW 1573 | 0.204
LCLC-97TM1 | 0.875
NCI-H661 | 0.917
NCI-H2228 | 0.175
EMC-BAC-2 | 1.15
NCI-H2087 | 0.132
NCI-H727 | 0.364
LK-2 | 0.163
NCI-H2126 | 0.916
NCI-H1793 | 0.159
H3255 | 0.896
COR-L23 | 0.728
COR-L 105 | 0.689
LC-2-ad | 0.98
LU99A | 0.256
ChaGo-K-1 | 0.606
NCI-H358 | 0.249
NCI-H322M | 0.806
NCI-H522 | 1.13
LXF-289 | 0.578
NCI-H1563 | 0.558
NCI-H1792 | 0.404

same assay, conditions: first compound 0.2 µM

Cell Line | relative viability
NCI-H2342 | 0.711
NCI-H1623 | 0.422
RERF-LC-KJ | 1.2
NCI-H1651 | 0.664
NCI-H1734 | 0.188
NCI-H2009 | 0.976
NCI-H596 | 0.929
SK-LU-1 | 0.188
SW 1573 | 0.197
LCLC-97TM1 | 0.879
NCI-H661 | 0.867
NCI-H2228 | 0.125
EMC-BAC-2 | 1.17
NCI-H2087 | 0.181
HCC-44 | 1.17
NCI-H727 | 0.266
LK-2 | 0.185
NCI-H2126 | 0.869
H3255 | 0.951
COR-L23 | 0.674
COR-L 105 | 0.75
LC-2-ad | 1.1
LU99A | 0.407
ChaGo-K-1 | 0.587
NCI-H358 | 0.322
NCI-H322M | 0.818
NCI-H522 | 1.16
LXF-289 | 0.648
NCI-H1563 | 0.531
NCI-H1792 | 0.439

same assay, conditions: first compound 0.6325 µM

Cell Line | relative viability
NCI-H2342 | 0.751
NCI-H1623 | 0.607
RERF-LC-KJ | 1.3
NCI-H1651 | 1.13
NCI-H1734 | 0.278
NCI-H2009 | 0.992
NCI-H596 | 1.3
SK-LU-1 | 0.2
SW 1573 | 0.214
LCLC-97TM1 | 0.794
NCI-H661 | 0.879
NCI-H2228 | 0.199
EMC-BAC-2 | 1.25
NCI-H2087 | 0.196
HCC-44 | 1.24
NCI-H727 | 0.328

Cell Line | relative viability
LK-2 | 0.185
NCI-H2126 | 1.07
NCI-H1793 | 0.163
H3255 | 1.06
COR-L23 | 0.806
COR-L 105 | 0.76
LC-2-ad | 0.963
LU99A | 0.248
ChaGo-K-1 | 0.554
NCI-H358 | 0.289
NCI-H322M | 0.819
NCI-H522 | 1.12
LXF-289 | 0.551
NCI-H1563 | 0.54
NCI-H1792 | 0.581

same assay, conditions: first compound 2 µM

Cell Line | relative viability
NCI-H2342 | 0.797
NCI-H1623 | 0.52
RERF-LC-KJ | 0.849
NCI-H1651 | 0.603
NCI-H1734 | 0.167
NCI-H2009 | 0.902
NCI-H596 | 0.62
SK-LU-1 | 0.173
SW 1573 | 0.204
LCLC-97TM1 | 0.765
NCI-H661 | 0.823
NCI-H2228 | 0.177
EMC-BAC-2 | 0.904
NCI-H2087 | 0.139
HCC-44 | 0.997
NCI-H727 | 0.331

Cell Line | relative viability
LK-2 | 0.208
NCI-H2126 | 0.731
NCI-H1793 | 0.182
H3255 | 0.961
COR-L23 | 0.372
COR-L 105 | 0.503
LC-2-ad | 0.646
LU99A | 0.209
ChaGo-K-1 | 0.436
NCI-H358 | 0.205
NCI-H322M | 0.742
NCI-H522 | 0.89
LXF-289 | 0.561
NCI-H1563 | 0.502
NCI-H1792 | 0.274

compound: COC1=C(C=C(C=C1)C2=CC3=NC=CN3C(=N2)NC4=C(C=CC=N4)C(=O)N)OC [BAY61-3606] + Cc1nc(Nc2ncc(C(=O)Nc3c(C)cccc3Cl)s2)cc(N2CCN(CCO)CC2)n1 [Dasatinib] (partner 0.075 µM); test: as above; conditions: first compound 0.02 µM
In short: as §1

Cell Line | relative viability
NCI-H2342 | 0.297
NCI-H1623 | 0.556
RERF-LC-KJ | 0.843
NCI-H1651 | 0.379
NCI-H1734 | 0.582
NCI-H2009 | 0.318
NCI-H596 | 0.644
SK-LU-1 | 0.2
SW 1573 | 0.535
LCLC-97TM1 | 0.722
NCI-H661 | 0.985
NCI-H2228 | 0.572
EMC-BAC-2 | 0.359
NCI-H2087 | 1.01
NCI-H727 | 0.364
LK-2 | 0.334

Cell Line | relative viability
NCI-H2126 | 0.676
NCI-H1793 | 0.365
H3255 | 0.411
COR-L23 | 0.609
COR-L 105 | 0.325
LC-2-ad | 0.569
LU99A | 0.561
ChaGo-K-1 | 0.566
NCI-H358 | 0.17
NCI-H322M | 0.247
HCC-78 | 0.363
NCI-H522 | 0.838
LXF-289 | 0.261
NCI-H1563 | 0.477
NCI-H1792 | 0.858
HCC-366 | 0.56

same assay, conditions: first compound 0.06325 µM

Cell Line | relative viability
NCI-H2342 | 0.32
NCI-H1623 | 0.557
RERF-LC-KJ | 0.856
NCI-H1651 | 0.459
NCI-H1734 | 0.386
NCI-H2009 | 0.288
NCI-H596 | 0.481
SK-LU-1 | 0.148
SW 1573 | 0.416
LCLC-97TM1 | 0.98
NCI-H661 | 0.835
NCI-H2228 | 0.498
EMC-BAC-2 | 0.323
NCI-H2087 | 0.858
NCI-H727 | 0.438
LK-2 | 0.217

Cell Line | relative viability
NCI-H2126 | 0.599
NCI-H1793 | 0.357
H3255 | 0.304
COR-L23 | 0.548
COR-L 105 | 0.332
LC-2-ad | 0.496
LU99A | 0.509
ChaGo-K-1 | 0.547
NCI-H358 | 0.158
NCI-H322M | 0.232
HCC-78 | 0.362
NCI-H522 | 0.792
LXF-289 | 0.205
NCI-H1563 | 0.406
NCI-H1792 | 0.76
HCC-366 | 0.548

same assay, conditions: first compound 0.2 µM

Cell Line | relative viability
NCI-H2342 | 0.319
NCI-H1623 | 0.533
RERF-LC-KJ | 0.702
NCI-H1651 | 0.387
NCI-H1734 | 0.409
NCI-H2009 | 0.281
NCI-H596 | 0.618
SK-LU-1 | 0.148
SW 1573 | 0.43
LCLC-97TM1 | 1.03
NCI-H661 | 0.861
NCI-H2228 | 0.571
EMC-BAC-2 | 0.353
NCI-H2087 | 0.906
NCI-H727 | 0.339
LK-2 | 0.347

Cell Line | relative viability
NCI-H2126 | 0.573
H3255 | 0.352
COR-L23 | 0.504
COR-L 105 | 0.339
LC-2-ad | 0.753
LU99A | 0.505
ChaGo-K-1 | 0.591
NCI-H358 | 0.149
NCI-H322M | 0.256
HCC-78 | 0.379
NCI-H522 | 0.975
LXF-289 | 0.187
NCI-H1563 | 0.508
NCI-H1792 | 0.809
HCC-366 | 0.626

same assay, conditions: first compound 0.6325 µM

Cell Line | relative viability
NCI-H2342 | 0.311
NCI-H1623 | 0.522
RERF-LC-KJ | 0.886
NCI-H1651 | 0.32
NCI-H1734 | 0.331
NCI-H2009 | 0.233
NCI-H596 | 0.594
SK-LU-1 | 0.169
SW 1573 | 0.373
LCLC-97TM1 | 0.804
NCI-H661 | 0.886
NCI-H2228 | 0.46
EMC-BAC-2 | 0.298
NCI-H2087 | 0.79
NCI-H727 | 0.333
LK-2 | 0.368

Cell Line | relative viability
NCI-H2126 | 0.567
NCI-H1793 | 0.32
H3255 | 0.335
COR-L23 | 0.467
COR-L 105 | 0.333
LC-2-ad | 0.622
LU99A | 0.51
ChaGo-K-1 | 0.548
NCI-H358 | 0.179
NCI-H322M | 0.233
HCC-78 | 0.48
NCI-H522 | 0.832
LXF-289 | 0.187
NCI-H1563 | 0.421
NCI-H1792 | 0.83
HCC-366 | 0.597

same assay, conditions: first compound 2 µM

Cell Line | relative viability
NCI-H2342 | 0.367
NCI-H1623 | 0.501
RERF-LC-KJ | 0.517
NCI-H1651 | 0.318
NCI-H1734 | 0.272
NCI-H2009 | 0.142
NCI-H596 | 0.489
SK-LU-1 | 0.152
SW 1573 | 0.203
LCLC-97TM1 | 0.864
NCI-H661 | 0.702
NCI-H2228 | 0.278
EMC-BAC-2 | 0.276
NCI-H2087 | 0.635
NCI-H727 | 0.386
LK-2 | 0.379

Cell Line | relative viability
NCI-H2126 | 0.356
NCI-H1793 | 0.427
H3255 | 0.462
COR-L23 | 0.316
COR-L 105 | 0.203
LC-2-ad | 0.27
LU99A | 0.303
ChaGo-K-1 | 0.596
NCI-H358 | 0.138
NCI-H322M | 0.224
HCC-78 | 0.694
NCI-H522 | 0.747
LXF-289 | 0.129
NCI-H1563 | 0.428
NCI-H1792 | 0.535
HCC-366 | 0.439

compound: COC1=C(C=C(C=C1)C2=CC3=NC=CN3C(=N2)NC4=C(C=CC=N4)C(=O)N)OC [BAY61-3606] + O=C(CCCCCCC(=O)Nc1ccccc1)NO [Vorinostat] (partner 1 µM); test: as above; conditions: first compound 0.02 µM
In short: as §1

Cell Line | relative viability
NCI-H2342 | 0.87
RERF-LC-KJ | 0.701

Reference: the supplement of paper PMC10307832
